From patent publication US20260184663A1, “INDENE COMPOUNDS, PHARMACEUTICAL COMPOSITIONS THEREOF, AND THEIR THERAPEUTIC APPLICATIONS” (NucMito Pharmaceuticals co. Ltd., priority 2022, published 2026)
Like-named read-outs stand apart in the source and are kept apart here.

Key:
Type in all cases: cell-based
[1] = system: B16F10 (malignant melanoma); experiment: Antiproliferative activity (CCK-8 cell viability), B16F10; settings: Mus musculus, 72 h, read-out: Antiproliferative activity in cancerous cells, B16F10 (inhibition of cell growth); for inhibition at 3.3 µM: B16-F10, Compound concentration: 3.3 μM; for inhibition at 10 µM: B16-F10, Compound concentration: 10 μM; for inhibition at 30 µM: B16-F10, Compound concentration: 30 μM
Outline: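 Attached B16F10 cells in 96-well plates were incubated with compound at 37° C for 72 h, followed by 10 μL CCK-8 reagent per well and a further 4 h incubation. A multi-well plate reader measured absorbance at 450 nm. Percent viability across replicates was calculated against DMSO vehicle-treated cells.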

[2] = system: A431 (epidermoid carcinoma); experiment: Antiproliferative activity (CCK-8 cell viability), A431; settings: Homo sapiens, 72 h, read-out: Antiproliferative activity in cancerous cells, A431 (inhibition of cell growth); for inhibition at 3.3 µM: A-431, Compound concentration: 3.3 μM; for inhibition at 10 µM: A-431, Compound concentration: 10 μM; for inhibition at 30 µM: A-431, Compound concentration: 30 μM
Outline: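 Cell viability of compound-treated A431 cells was measured with a Cell Counting Kit-8. Each well received 10 μL of CCK-8 after 72 h of compound exposure, followed by 4 h incubation at 37° C. and a 450 nm plate-reader measurement. Percent viability was calculated relative to DMSO controls across replicates.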

HepG2 (liver cancer) = experiment: Antiproliferative activity (CCK-8 cell viability), HepG2; settings: Homo sapiens, 72 h, read-out: Antiproliferative activity in cancerous cells, HepG2 (inhibition of cell growth); for inhibition at 3.3 µM: Compound concentration: 3.3 μM; for inhibition at 10 µM: Compound concentration: 10 μM; for inhibition at 30 µM: Compound concentration: 30 μM
Outline: (§1)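 Cells were seeded at 2,000-5,000/well (HeLa in MEM, HepG2 and SW480 in DMEM, A549 in F-12K, all with 10% FBS) and treated with compound at 3.3, 10 or 30 μM for 72 h at 37° C. CCK-8 was added for 4 h, absorbance was read at 450 nm, and viability was expressed relative to DMSO-treated wells.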

[3] = system: MDA-MB-231 (breast cancer); experiment: Antiproliferative activity (CCK-8 cell viability), MDA-MB-231; settings: Homo sapiens, 72 h, read-out: Antiproliferative activity in cancerous cells, MDA-MB-231 (inhibition of cell growth); for inhibition at 3.3 µM: Compound concentration: 3.3 μM; for inhibition at 10 µM: Compound concentration: 10 μM; for inhibition at 30 µM: Compound concentration: 30 μM
Outline: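 In this CCK-8 viability assay, MDA-MB-231 cells maintained in Dulbecco's modified Eagle's medium containing 10% fetal bovine serum were placed in 96-well plates (2,000-5,000 cells/well) and treated with compound for 72 h at 37° C. A 4 h incubation with 10 μL CCK-8 followed, plates were read at 450 nm, and viability was expressed against DMSO vehicle wells across replicates.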

[4] = system: A549 (lung adenocarcinoma); experiment: Antiproliferative activity (CCK-8 cell viability), A549; settings: Homo sapiens, 72 h, read-out: Antiproliferative activity in cancerous cells, A549 (inhibition of cell growth); for inhibition at 3.3 µM: Compound concentration: 3.3 μM; for inhibition at 10 µM: Compound concentration: 10 μM; for inhibition at 30 µM: Compound concentration: 30 μM
Outline: as §1

SW480 (colon cancer) = experiment: Antiproliferative activity (CCK-8 cell viability), SW480; settings: Homo sapiens, 72 h; for inhibition at 3.3 µM: Compound concentration: 3.3 μM; for inhibition at 10 µM: Compound concentration: 10 μM; for inhibition at 30 µM: Compound concentration: 30 μM
Outline: as §1

HeLa (cervical cancer) = experiment: Antiproliferative activity (CCK-8 cell viability), HeLa; settings: Homo sapiens, 72 h, read-out: Antiproliferative activity in cancerous cells, HELA (inhibition of cell growth); for inhibition at 3.3 µM: Compound concentration: 3.3 μM; for inhibition at 10 µM: Compound concentration: 10 μM; for inhibition at 30 µM: Compound concentration: 30 μM
Outline: as §1

[5] = read-out: Antiproliferative activity in cancerous cells, SW480 (inhibition of cell growth)

CC1=C(CC(=O)O)c2cc(F)ccc2/C1=C/c1cccc(COc2ccc(F)c(F)c2)c1 [E9, 2-[(1E)-1-({3-[(3,4-Difluorophenoxy)methyl]phenyl}methylidene)-5-fluoro-2-methyl-1H-inden-3-yl]acetic acid]
inhibition at 3.3 µM [1]: 30 to 50%
inhibition at 10 µM [1]: ≥ 50%
inhibition at 30 µM [1]: ≥ 50%
inhibition at 3.3 µM [2]: < 30%
inhibition at 10 µM [2]: ≥ 50%
inhibition at 30 µM [2]: ≥ 50%
inhibition at 3.3 µM (HepG2 (liver cancer)): 30 to 50%
inhibition at 10 µM (HepG2 (liver cancer)): ≥ 50%
inhibition at 30 µM (HepG2 (liver cancer)): ≥ 50%
inhibition at 3.3 µM [3]: ≥ 50%
inhibition at 10 µM [3]: ≥ 50%
inhibition at 30 µM [3]: ≥ 50%
inhibition at 3.3 µM [4]: 30 to 50%
inhibition at 10 µM [4]: 30 to 50%
inhibition at 30 µM [4]: ≥ 50%
inhibition at 3.3 µM (SW480 (colon cancer); [5]): ≥ 50%
inhibition at 10 µM (SW480 (colon cancer); [5]): ≥ 50%
inhibition at 30 µM (SW480 (colon cancer); [5]): ≥ 50%
inhibition at 3.3 µM (HeLa (cervical cancer)): < 30%
inhibition at 10 µM (HeLa (cervical cancer)): 30 to 50%
inhibition at 30 µM (HeLa (cervical cancer)): ≥ 50%

CC1=C(CC(O)CO)c2ccccc2/C1=C\c1ccc(Oc2ccc(F)cc2)cc1 (stereo not shown) [A203, (Z)-3-(1-(4-(4-Fluorophenoxy)benzylidene)-2-methyl-1H-inden-3-yl)propane-1,2-diol]
inhibition at 3.3 µM [1]: < 30%
inhibition at 10 µM [1]: ≥ 50%
inhibition at 3.3 µM [2]: 30 to 50%
inhibition at 10 µM [2]: ≥ 50%
inhibition at 3.3 µM (HepG2 (liver cancer)): < 30%
inhibition at 10 µM (HepG2 (liver cancer)): < 30%
inhibition at 3.3 µM [3]: < 30%
inhibition at 10 µM [3]: ≥ 50%
inhibition at 3.3 µM [4]: < 30%
inhibition at 10 µM [4]: ≥ 50%
inhibition at 3.3 µM (SW480 (colon cancer); [5]): < 30%
inhibition at 10 µM (SW480 (colon cancer); [5]): 30 to 50%
inhibition at 3.3 µM (HeLa (cervical cancer)): < 30%
inhibition at 10 µM (HeLa (cervical cancer)): ≥ 50%

CC1=C(CC(=O)O)c2cc(F)ccc2/C1=C\c1cccc(Oc2ccc(F)c(F)c2)c1 [C98, (Z)-2-(1-(3-(3,4-Difluorophenoxy)benzylidene)-5-fluoro-2-methyl-1H-inden-3-yl)acetic acid]
inhibition at 3.3 µM [1]: 30 to 50%
inhibition at 10 µM [1]: ≥ 50%
inhibition at 3.3 µM [2]: < 30%
inhibition at 10 µM [2]: 30 to 50%
inhibition at 3.3 µM (HepG2 (liver cancer)): < 30%
inhibition at 10 µM (HepG2 (liver cancer)): ≥ 50%
inhibition at 3.3 µM [3]: < 30%
inhibition at 10 µM [3]: 30 to 50%
inhibition at 3.3 µM [4]: < 30%
inhibition at 10 µM [4]: < 30%
inhibition at 3.3 µM (SW480 (colon cancer); [5]): < 30%
inhibition at 10 µM (SW480 (colon cancer); [5]): < 30%
inhibition at 3.3 µM (HeLa (cervical cancer)): < 30%
inhibition at 10 µM (HeLa (cervical cancer)): ≥ 50%

CC1=C(CC(=O)O)c2cccc(F)c2/C1=C/c1cccc(COc2ccccc2)c1 [E8, (E)-2-(7-Fluoro-2-methyl-1-(3-(phenoxymethyl)benzylidene)-1H-inden-3-yl)-acetic acid]
inhibition at 3.3 µM [1]: < 30%
inhibition at 10 µM [1]: 30 to 50%
inhibition at 30 µM [1]: ≥ 50%
inhibition at 3.3 µM [2]: ≥ 50%
inhibition at 10 µM [2]: ≥ 50%
inhibition at 30 µM [2]: ≥ 50%
inhibition at 3.3 µM (HepG2 (liver cancer)): 30 to 50%
inhibition at 10 µM (HepG2 (liver cancer)): ≥ 50%
inhibition at 30 µM (HepG2 (liver cancer)): ≥ 50%
inhibition at 3.3 µM [3]: ≥ 50%
inhibition at 10 µM [3]: ≥ 50%
inhibition at 30 µM [3]: ≥ 50%
inhibition at 3.3 µM [4]: < 30%
inhibition at 10 µM [4]: ≥ 50%
inhibition at 30 µM [4]: ≥ 50%
inhibition at 3.3 µM (SW480 (colon cancer); [5]): 30 to 50%
inhibition at 10 µM (SW480 (colon cancer); [5]): ≥ 50%
inhibition at 30 µM (SW480 (colon cancer); [5]): ≥ 50%
inhibition at 3.3 µM (HeLa (cervical cancer)): 30 to 50%
inhibition at 10 µM (HeLa (cervical cancer)): ≥ 50%
inhibition at 30 µM (HeLa (cervical cancer)): ≥ 50%

CC1=C(CC(=O)O)c2cc(F)ccc2/C1=C\c1ccc(Oc2cccc(Cl)c2)cc1 [C61, (Z)-2-(1-(4-(3-Chlorophenoxy)benzylidene)-5-fluoro-2-methyl-H-inden-3-yl)acetic acid]
inhibition at 3.3 µM [1]: < 30%
inhibition at 10 µM [1]: < 30%
inhibition at 3.3 µM [2]: ≥ 50%
inhibition at 10 µM [2]: ≥ 50%
inhibition at 3.3 µM (HepG2 (liver cancer)): 30 to 50%
inhibition at 10 µM (HepG2 (liver cancer)): 30 to 50%
inhibition at 3.3 µM [3]: < 30%
inhibition at 10 µM [3]: < 30%
inhibition at 3.3 µM [4]: 30 to 50%
inhibition at 10 µM [4]: ≥ 50%
inhibition at 3.3 µM (SW480 (colon cancer); [5]): < 30%
inhibition at 10 µM (SW480 (colon cancer); [5]): < 30%
inhibition at 30 µM (SW480 (colon cancer); read-out: Antiproliferative activity in cancerous cells, SW480): < 30%
inhibition at 3.3 µM (HeLa (cervical cancer)): 30 to 50%
inhibition at 10 µM (HeLa (cervical cancer)): ≥ 50%
